15 molecules from US10538555B2, “Macrocyclic inhibitors of the PD-1/PD-L1 and CD80(B7-1)/PD-L1 protein/protein interactions” (BRISTOL-MYERS SQUIBB COMPANY, priority 2014, dated 2020) can be followed below.

SMILES strings stand for the structures. *1 amine or outer side, *2 acyl side, *3 side chain or, on linkers, in order; H or OH if unused. Where a SMILES comes first, the peptide text is derived from it. Bridges are numbered along the chain shown (N, C = ends). [ ]: non-standard residue; d: D form. ξ: configuration not given here. Trp(1-CH2COOH) = N[C@@H](Cc1cn(CC(=O)O)c2ccccc12)C(=O)O; Phe(3,4,5-F3) = N[C@@H](Cc1cc(F)c(F)c(F)c1)C(=O)O; NMePhe(4-F) = CN[C@@H](Cc1ccc(F)cc1)C(=O)O; Phe(4-F) = N[C@@H](Cc1ccc(F)cc1)C(=O)O; d(cisHyp) = O=C(O)[C@H]1C[C@@H](O)CN1; Bta = N[C@@H](Cc1csc2ccccc12)C(=O)O; NMeY = CN[C@@H](Cc1ccc(O)cc1)C(=O)O; Hyp = O=C(O)[C@@H]1C[C@@H](O)CN1; NMeF = CN[C@@H](Cc1ccccc1)C(=O)O; X1 = O=C([C@H]1COCCN1[*:1])[*:2]; NMeNle = CCCC[C@H](NC)C(=O)O; NMeV = CN[C@H](C(=O)O)C(C)C; dPip = O=C(O)[C@H]1CCCCN1; hSer = N[C@@H](CCO)C(=O)O; NMeA = CN[C@@H](C)C(=O)O; Orn = NCCC[C@H](N)C(=O)O; dThz = O=C(O)[C@H]1CSCN1; Dab = NCC[C@H](N)C(=O)O; ξC = NC(CS)C(=O)O; Sar = CNCC(=O)O

The target of the test is T1, Human PD-L1/PD-1 (Homo sapiens, UniProt Q9NZQ7).
T1 construct: TVMV protease cleavage site (C); made in house; host or cells: HEK293T cells
T1 sequence (Q9NZQ7 with tags, fused parts or gaps): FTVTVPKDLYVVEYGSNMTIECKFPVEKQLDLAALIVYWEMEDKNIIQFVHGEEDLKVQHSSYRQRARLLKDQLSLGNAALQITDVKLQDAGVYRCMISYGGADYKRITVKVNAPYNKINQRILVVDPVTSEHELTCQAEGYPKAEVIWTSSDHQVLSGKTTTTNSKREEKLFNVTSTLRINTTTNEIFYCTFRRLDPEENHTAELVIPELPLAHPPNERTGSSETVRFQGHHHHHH
The test is described as follows: HTRF Human PD-L1/PD-1 binding assay (PD-1-Ig/PD-L1-His). The settings on record: PD-L1-His 10 nM, PD-1-Ig 20 nM; class symbol; read-out: HTRF Human PD-L1/PD-1 Binding Assay IC50 Range. In short, it runs like this:
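Soluble HEK293T-expressed proteins: hPD-L1-His 10 nM, hPD-1-Ig 20 nM final. Cpd + PD-L1 15 min, + PD-1 15 min, + Eu anti-Ig 1 nM/APC anti-His 20 nM 30 min. Buffer dPBS, 0.1% BSA, 0.05% Tween-20. TR-FRET 665/620.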
(In general: Time-resolved FRET reads energy transfer from a long-lived donor to a nearby acceptor.)
For the molecule `CCCC[C@H]1C(=O)N(C)[C@@H](CCCC)C(=O)N[C@@H](CCC(=O)O)C(=O)NC(C(=O)NCC(N)=O)CSCC(=O)N[C@@H](Cc2ccc(O)cc2)C(=O)N(C)[C@@H](C)C(=O)N[C@@H](CC(N)=O)C(=O)N2CCC[C@H]2C(=O)N[C@@H](CC(N)=O)C(=O)N[C@@H](CC(C)C)C(=O)N2C[C@H](O)C[C@H]2C(=O)N[C@@H](Cc2c[nH]c3ccccc23)C(=O)N[C@@H](CCO)C(=O)N[C@@H](Cc2c[nH]c3ccccc23)C(=O)N1C` (stereo partly drawn) [Example 9185] ({CH2CO}-Y[NMeA]NPNL[Hyp]W[hSer]W[NMeNle][NMeNle]E[ξC]G-NH2; thioether N-14), the IC50 lay within 1 to 9.9 nM.
Turning to `CCCC[C@H]1C(=O)N2C[C@H](O)C[C@@H]2C(=O)N[C@@H](CC(=O)O)C(=O)N[C@@H](C(C)C)C(=O)N(C)[C@@H](Cc2ccccc2)C(=O)N[C@@H](Cc2ccc(O)cc2)C(=O)N2CCOC[C@@H]2C(=O)N[C@@H](Cc2c[nH]c3ccccc23)C(=O)N[C@@H](Cc2ccc(O)cc2)C(=O)N[C@@H](CCOC)C(=O)N[C@H](C(=O)NCC(N)=O)CSCC(=O)N[C@@H](Cc2cc(F)c(F)c(F)c2)C(=O)N(C)[C@@H](Cc2ccccc2)C(=O)N1C` [Example 10160] ({CH2CO}-[Phe(3,4,5-F3)][NMeF][NMeNle][d(cisHyp)]DV[NMeF]Y[X1]WY[hSer](Me)CG-NH2; thioether N-13), the IC50 is 1 to 9.9 nM.
For `CCCC[C@H]1C(=O)N(C)[C@@H](CCCC)C(=O)N[C@@H](CC(C)C)C(=O)N[C@H](C(=O)NCC(N)=O)CSCC(=O)N[C@@H](Cc2ccc(O)cc2)C(=O)N(C)[C@@H](C)C(=O)N[C@@H](CC(=O)O)C(=O)N2CCC[C@H]2C(=O)N[C@@H](Cc2cnc[nH]2)C(=O)N[C@@H](CCC(=O)O)C(=O)N2C[C@H](O)C[C@H]2C(=O)N[C@@H](Cc2c[nH]c3ccccc23)C(=O)N[C@@H](CO)C(=O)N[C@@H](Cc2cn(CC(=O)O)c3ccccc23)C(=O)N1C` [Example 6276] ({CH2CO}-Y[NMeA]DPHE[Hyp]WS[Trp(1-CH2COOH)][NMeNle][NMeNle]LCG-NH2; thioether N-14), the IC50 fell in the range of 1 to 9.9 nM.
To `CCCC[C@H]1C(=O)N(C)[C@@H](CCCC)C(=O)N[C@@H](CCN)C(=O)NC(C(=O)NCC(N)=O)CSCC(=O)N[C@@H](Cc2ccc(O)cc2)C(=O)N(C)[C@@H](C)C(=O)N[C@@H](CC(N)=O)C(=O)N2CCC[C@H]2C(=O)N[C@@H](CC(N)=O)C(=O)N[C@@H](CC(C)C)C(=O)N2C[C@H](O)C[C@H]2C(=O)N[C@@H](Cc2c[nH]c3ccccc23)C(=O)N[C@@H](CO)C(=O)N[C@@H](Cc2csc3ccccc23)C(=O)N1C` (stereo partly drawn) [Example 9165] ({CH2CO}-Y[NMeA]NPNL[Hyp]WS[Bta][NMeNle][NMeNle][Dab][ξC]G-NH2; thioether N-14) belongs 1 to 9.9 nM; to `CCCC[C@H]1C(=O)N(C)[C@@H](CCCC)C(=O)N[C@@H](CCCNC(=N)N)C(=O)N[C@H](C(=O)NCC(N)=O)CSCC(=O)N[C@@H](Cc2ccc(O)cc2)C(=O)N(C)[C@@H](C)C(=O)N[C@@H](CC(N)=O)C(=O)N2CCC[C@H]2C(=O)N[C@@H](CO)C(=O)N[C@@H](CCO)C(=O)N2C[C@H](O)C[C@H]2C(=O)N[C@@H](Cc2c[nH]c3ccccc23)C(=O)N[C@@H](CCO)C(=O)N[C@@H](Cc2cn(CC(=O)O)c3ccccc23)C(=O)N1C` [Example 6213] ({CH2CO}-Y[NMeA]NPS[hSer][Hyp]W[hSer][Trp(1-CH2COOH)][NMeNle][NMeNle]RCG-NH2; thioether N-14), 1 to 9.9 nM.
For `CCCC[C@H]1C(=O)N2CCC[C@@H]2C(=O)N[C@@H](CC(=O)O)C(=O)N[C@@H](C(C)C)C(=O)N(C)[C@@H](C(C)C)C(=O)N[C@@H](Cc2ccc(O)cc2)C(=O)N2CCC[C@@H]2C(=O)N[C@@H](Cc2c[nH]c3ccccc23)C(=O)N[C@@H](Cc2ccc(O)cc2)C(=O)N[C@@H](CCCN)C(=O)N[C@H](C(=O)NCC(N)=O)CSCC(=O)N[C@@H](Cc2ccc(F)cc2)C(=O)N(C)[C@@H](Cc2ccccc2)C(=O)N1C` [Example 9243] ({CH2CO}-[Phe(4-F)][NMeF][NMeNle][dP]DV[NMeV]Y[dP]WY[Orn]CG-NH2; thioether N-13), the IC50 was in the range of 1000 to 10000 nM.
On to `CCCC[C@H]1C(=O)N2C[C@H](O)C[C@@H]2C(=O)N[C@@H](CC(=O)O)C(=O)N[C@@H](C(C)C)C(=O)N(C)[C@@H](Cc2ccccc2)C(=O)N[C@@H](CCC(N)=O)C(=O)N2C[C@H](O)C[C@@H]2C(=O)N[C@@H](Cc2c[nH]c3ccccc23)C(=O)N[C@@H](Cc2ccc(O)cc2)C(=O)N[C@@H](CC(C)C)C(=O)N[C@H](C(=O)NCC(N)=O)CSCC(=O)N[C@@H](Cc2cc(F)c(F)c(F)c2)C(=O)N(C)[C@@H](Cc2ccccc2)C(=O)N1C` [Example 9320] ({CH2CO}-[Phe(3,4,5-F3)][NMeF][NMeNle][d(cisHyp)]DV[NMeF]Q[d(cisHyp)]WYLCG-NH2; thioether N-13), for which the IC50 was 1 to 9.9 nM.
To `CCCC[C@H]1C(=O)N(C)[C@@H](CCCC)C(=O)N[C@@H](CCC(=O)O)C(=O)N[C@H](C(=O)NCC(N)=O)CSCC(=O)N[C@@H](Cc2ccc(O)cc2)C(=O)N(C)[C@@H](C)C(=O)N[C@@H](CC(=O)O)C(=O)N2CCC[C@H]2C(=O)N[C@@H](CO)C(=O)N[C@@H](CCC(N)=O)C(=O)N2C[C@H](O)C[C@H]2C(=O)N[C@@H](Cc2c[nH]c3ccccc23)C(=O)N[C@@H](CCC(=O)O)C(=O)N[C@@H](Cc2c[nH]c3ccccc23)C(=O)N1C` [Example 5177] ({CH2CO}-Y[NMeA]DPSQ[Hyp]WEW[NMeNle][NMeNle]ECG-NH2; thioether N-14) belongs 10 to 99.9 nM; to `CCCC[C@H]1C(=O)N2CCC[C@@H]2C(=O)N[C@@H](CC(=O)O)C(=O)N[C@@H](C(C)C)C(=O)N(C)[C@@H](Cc2ccc(F)cc2)C(=O)N[C@@H](CCCN)C(=O)N2CCC[C@@H]2C(=O)N[C@@H](Cc2c[nH]c3ccccc23)C(=O)N[C@@H](Cc2ccc(O)cc2)C(=O)N[C@@H](CC(C)C)C(=O)N[C@H](C(=O)NCC(N)=O)CSCC(=O)N[C@@H](Cc2ccc(F)cc2)C(=O)N(C)[C@@H](Cc2ccccc2)C(=O)N1C` [Example 10108] ({CH2CO}-[Phe(4-F)][NMeF][NMeNle][dP]DV[NMePhe(4-F)][Orn][dP]WYLCG-NH2; thioether N-13), 1 to 9.9 nM; to `CCCC[C@H]1C(=O)N(C)[C@@H](CCCC)C(=O)N[C@@H](CC(C)C)C(=O)N[C@H](C(=O)NCC(N)=O)CSCC(=O)N[C@@H](Cc2ccc(O)cc2)C(=O)N(C)[C@@H](C)C(=O)N[C@@H](CC(N)=O)C(=O)N2CCC[C@H]2C(=O)N[C@@H](Cc2c[nH]cn2)C(=O)N[C@@H](CCCCNC(C)=O)C(=O)N2C[C@H](O)C[C@H]2C(=O)N[C@@H](Cc2c[nH]c3ccccc23)C(=O)N[C@@H](CCN)C(=O)N[C@@H](Cc2c[nH]c3ccccc23)C(=O)N1C` [Example 5228] ({CH2CO}-Y[NMeA]NPHK(Ac)[Hyp]W[Dab]W[NMeNle][NMeNle]LCG-NH2; thioether N-14), 1 to 9.9 nM.
To `CCCC[C@H]1C(=O)N2CSC[C@@H]2C(=O)N[C@@H](CC(=O)O)C(=O)N[C@@H](C)C(=O)N(C)[C@@H](Cc2ccccc2)C(=O)N[C@@H](Cc2ccc(O)cc2)C(=O)N2CSC[C@@H]2C(=O)N[C@@H](Cc2c[nH]c3ccccc23)C(=O)N[C@@H](Cc2ccc(O)cc2)C(=O)N[C@@H](CC(C)C)C(=O)N[C@H](C(=O)NCC(N)=O)CSCC(=O)N[C@@H](Cc2ccccc2)C(=O)N(C)[C@@H](Cc2ccccc2)C(=O)N1C` [Example 10078] ({CH2CO}-F[NMeF][NMeNle][dThz]DA[NMeF]Y[dThz]WYLCG-NH2; thioether N-13) belongs 10 to 99.9 nM.
Consider `CCCC[C@H]1C(=O)N2CCC[C@@H]2C(=O)N[C@@H](CC(=O)O)C(=O)N[C@@H](C(C)C)C(=O)N(C)[C@@H](Cc2ccccc2)C(=O)N[C@@H](CCC(=O)O)C(=O)N2C[C@H](O)C[C@@H]2C(=O)N[C@@H](Cc2c[nH]c3ccccc23)C(=O)N[C@@H](Cc2ccc(O)cc2)C(=O)N[C@@H](CCC(N)=O)C(=O)N[C@H](C(=O)NCC(N)=O)CSCC(=O)N[C@@H](Cc2cc(F)c(F)c(F)c2)C(=O)N(C)[C@@H](Cc2ccc(O)cc2)C(=O)N1C` [Example 10631] ({CH2CO}-[Phe(3,4,5-F3)][NMeY][NMeNle][dP]DV[NMeF]E[d(cisHyp)]WYQCG-NH2; thioether N-13), for which the IC50 was in the range of 10 to 99.9 nM.
To `CCCC[C@H]1C(=O)N(C)[C@@H](CCCC)C(=O)N[C@@H](CCCCN)C(=O)N[C@H](C(=O)NCC(N)=O)CSCC(=O)N[C@@H](Cc2ccc(O)cc2)C(=O)N(C)[C@@H](C)C(=O)N[C@@H](CC(N)=O)C(=O)N2CCC[C@H]2C(=O)N[C@@H](Cc2cnc[nH]2)C(=O)N[C@@H](CCC(=O)O)C(=O)N2C[C@H](O)C[C@H]2C(=O)N[C@@H](Cc2c[nH]c3ccccc23)C(=O)N[C@@H](CO)C(=O)N[C@@H](Cc2cn(CC(=O)O)c3ccccc23)C(=O)N1C` [Example 6297] ({CH2CO}-Y[NMeA]NPHE[Hyp]WS[Trp(1-CH2COOH)][NMeNle][NMeNle]KCG-NH2; thioether N-14) belongs 1 to 9.9 nM; to `CCCC[C@H]1C(=O)N2CCC[C@@H]2C(=O)N[C@@H](CC(=O)O)C(=O)N[C@@H](C(C)C)C(=O)N(C)[C@@H](Cc2ccccc2)C(=O)N[C@@H](CCC(=O)O)C(=O)N2CCCC[C@@H]2C(=O)N[C@@H](Cc2c[nH]c3ccccc23)C(=O)N[C@@H](Cc2ccc(O)cc2)C(=O)N[C@@H](CCN)C(=O)N[C@H](C(=O)NCC(N)=O)CSCC(=O)N[C@@H](Cc2cc(F)c(F)c(F)c2)C(=O)N(C)[C@@H](Cc2ccc(OC)cc2)C(=O)N1C` [Example 10603] ({CH2CO}-[Phe(3,4,5-F3)][NMeY](Me)[NMeNle][dP]DV[NMeF]E[dPip]WY[Dab]CG-NH2; thioether N-13), 1 to 9.9 nM.
To `CCCC[C@H]1C(=O)N(C)[C@@H](CCCC)C(=O)N[C@@H](CC(C)C)C(=O)N[C@H](C(=O)NCC(N)=O)CSCC(=O)N[C@@H](Cc2ccc(O)cc2)C(=O)N(C)[C@@H](C)C(=O)N[C@@H](CC(N)=O)C(=O)N(C)CC(=O)N[C@@H](Cc2cnc[nH]2)C(=O)N[C@@H](CCC(=O)O)C(=O)N2C[C@H](O)C[C@H]2C(=O)N[C@@H](Cc2c[nH]c3ccccc23)C(=O)N[C@@H](CCN)C(=O)N[C@@H](Cc2csc3ccccc23)C(=O)N1C` [Example 5225] ({CH2CO}-Y[NMeA]N[Sar]HE[Hyp]W[Dab][Bta][NMeNle][NMeNle]LCG-NH2; thioether N-14) belongs 1 to 9.9 nM.
